# From PMC3750255, “Inhibition of Mycoplasma pneumoniae growth by FDA-approved anticancer and antiviral nucleoside and nucleobase analogs” (BMC Microbiology, 2013)
# Where “and” joins values, the source holds several entries; their conditions need not be identical. Equal entries are not always repeated. Where two headings read alike, the source gives them in different places.
# Experiments:
# [1] = test system: M. pneumoniae thyA mutant (lacking TS activity); test: microbe, parasite or virus in culture; type: cell-based, Mycoplasma pneumoniae; conditions: for MIC: Mycoplasmoides pneumoniae, read-out: thyA mutant MIC
# Protocol: (§1) A series dilution of each compound in Mycoplasma growth medium was added to Mpn cultures in 96-well plates. The plates were sealed and incubated at 37°C. Mpn growth was monitored by using growth index value e.g. the ratio of absorbance at 450 nm and 560 nm of the culture medium. Thirty nucleoside and nucleobase analogs and a nucleoside transporter inhibitor were included, and two Mpn strains, wild type and a thyA mutant (lacking TS activity), were used.
# (§2) Nucleoside and nucleobase analogs were dissolved in dimethyl sulfoxide (DMSO) as stock solutions and diluted with Mpn culture medium to the desired concentration immediately prior to use.
# (§3) Mpn laboratory strain M129 wild type and a thyA mutant strain [31] were used in this study. Mpn was cultured at 37°C in a CO2 incubator using 75 cm^2 tissue culture flasks containing 50 ml Hayflick’s medium, and harvested at day 4 when the medium color change was observed. The cells were harvested and the pellet was resuspended in 6 ml fresh medium and the cfu/ml was determined by serial dilution (10-fold) and plating on broth agar plate. Colonies was counted and cfu/ml was calculated.
# (§4) Inhibition studies were performed in 96-well plates containing 200 μl Mpn culture (approximately 10^6 cfu ml^-1) in Hayflick’s medium and 200 μl each compound in series dilutions (2-fold) with the growth medium, with three to four replicas. The plates were sealed with clear adhesive sheets and incubated at 37°C incubator. Absorbance ratio at 450 nm and 560 nm was used as Mpn growth index, which was measured daily, and by visual detection for at least 8 days, as previously described. […] The MICs (minimal inhibitory concentration required to inhibit Mpn growth to 90%) were determined as the lowest concentration at which the growth index was ≈ 10% of the control values (at the time when the control culture medium color turned yellow), essentially as described.
# [2] = test system: M. pneumoniae wild type (laboratory strain M129); test: Mpn growth inhibition in 96-well plates (growth index A450/A560), wild type strain; type: cell-based, Mycoplasma pneumoniae; conditions: for MIC: Mycoplasmoides pneumoniae, read-out: Wild type MIC; for MIC (Mpn growth): 90% growth inhibition
# Protocol: as §1, §2, §3, §4
# Mpn HPRT = target: T1, Mpn HPRT (Mycoplasmoides pneumoniae, UniProt P75119); test: biochemical
# T1 sequence (P75119 1-175): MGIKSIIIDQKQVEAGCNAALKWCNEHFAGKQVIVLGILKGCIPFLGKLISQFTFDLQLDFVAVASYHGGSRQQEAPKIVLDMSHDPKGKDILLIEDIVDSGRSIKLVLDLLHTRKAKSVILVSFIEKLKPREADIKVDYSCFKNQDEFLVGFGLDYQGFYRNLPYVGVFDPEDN
# Protocol: (§5) The reaction was initiated by addition of the enzyme, and at 0, 5, 10, and 15 min intervals, 10 μl reaction mixture was withdrawn and spotted onto the DE81 filter paper and dried. The unreacted substrate was washed and the products were eluted and counted in a liquid scintillation counter. With [^3H]-Gua as substrate the reaction (in a total of 25 μl) was initiated by addition of the enzyme (10 μl), incubated at 37°C for 2 min, stopped by addition of 1 M HCl (10 μl), and placed immediately on ice. After neutralization, 15 μl of the mixture was spotted onto the DE81-filter paper. The filters were then washed, and the products were eluted and counted by liquid scintillation.
# human HPRT = target: T2, human HPRT (Homo sapiens, UniProt P00492); test: HPRT inhibition, DE-81 filter paper assay; type: biochemical
# T2 construct: made in house
# T2 sequence (P00492 1-218): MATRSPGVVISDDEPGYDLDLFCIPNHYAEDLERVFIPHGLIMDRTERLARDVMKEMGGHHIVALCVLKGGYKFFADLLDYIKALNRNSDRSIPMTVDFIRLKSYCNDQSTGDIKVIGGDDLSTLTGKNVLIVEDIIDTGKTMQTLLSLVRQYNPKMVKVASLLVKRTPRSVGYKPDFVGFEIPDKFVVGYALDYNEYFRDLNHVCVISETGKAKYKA
# Protocol: as §5
# Mpn wild type cells = test: Uptake and metabolism of tritium labelled natural nucleoside and nucleobases in the presence of analogs; type: cell-based, Mycoplasma pneumoniae; conditions: 10 μM analog, 70 hours; for [3H]-Ade Total uptake / [3H]-Gua Total uptake / [3H]-Hx Total uptake / [3H]-Ura Total uptake / [3H]-dT Total uptake: 37°C, radioactivity in cells / total added; for [3H]-Ade Incorporation / [3H]-Gua Incorporation / [3H]-Hx Incorporation / [3H]-Ura Incorporation / [3H]-dT Incorporation: acid insoluble fraction / total in cells
# Protocol: The cells were harvested and analyzed essentially as described. Analogs used were dipyridamole, 6-thioguanine (6-TG), trifluorothymidine (TFT), gemcitabine (dFdC) and 5-fluorodeoxyuridine (5FdU). Total uptake is the percent of radioactivity recovered in the cells divided by total radioactivity added to the growth medium. Percent of acid insoluble (radioactivity found in DNA and RNA) was also calculated. These experiments were done more than three times and data are given as mean ± SD.
# [3] = substrate guanine, 10 μM [3H]-guanine
# [4] = substrate hypoxanthine, 10 μM [3H]-hypoxanthine
# [5] = 10 μM [3H]-guanine, read-out: IC50 Human HPRT, substrate guanine
# [6] = IC50 Human HPRT, substrate hypoxanthine, 10 μM [3H]-hypoxanthine
# [7] = minimal concentration producing 90% inhibition, wild type Mpn
smiles,measurement,setting,value
Nc1ncn([C@@H]2O[C@H](CO)[C@@H](O)[C@H]2O)c(=O)n1 [5-azacytidine],MIC,[1],> 500 µg/mL
same,MIC,[2],> 500 µg/mL
Nc1nc(=O)[nH]cc1F [5-fluorocytosine],MIC,[1],31.2 µg/mL
same,MIC,[2],31.2 µg/mL
O=c1[nH]cc(F)c(=O)[nH]1 [5-fluorouracil],MIC,[1],31.2 µg/mL
same,MIC,[2],31.2 µg/mL
O=c1[nH]c(=O)n([C@H]2C[C@H](O)[C@@H](CO)O2)cc1I [5-iododeoxyuridine],MIC,[1],> 500 µg/mL
same,MIC,[2],15.6 µg/mL
same,Inhibition of wild type Mpn growth (in words),[2]; wild type Mpn,only inhibited the wild type Mpn growth
"Sc1ncnc2nc[nH]c12 [6-mercaptopurine (6-MP), 6-mercaptopurine]",IC50,Mpn HPRT; [3],282 ± 21 µM
same,IC50,Mpn HPRT; [4],89.7 ± 14.5 µM
same,IC50,human HPRT; [5],25.1 ± 3 µM
same,IC50,human HPRT; [6],22.5 ± 3.6 µM
same,MIC,[1],> 500 µg/mL
same,MIC,[2],> 500 µg/mL
same,Inhibition of Mpn growth (in words),[2]; strain not specified,did not inhibit Mpn growth
"Nc1nc2nc[nH]c2c(=S)[nH]1 [6-thioguanine (6-TG), 6-thioguanine]",IC50,Mpn HPRT; [3],3.2 µM and 3.16 µM
same,IC50,Mpn HPRT; [4],3.5 ± 0.5 µM
same,IC50,human HPRT; [5],39.8 ± 4 µM
same,IC50,human HPRT; [6],20.5 ± 6.5 µM
same,[3H]-Ade Total uptake,Mpn wild type cells,0.66±0.1%
same,[3H]-Gua Total uptake,Mpn wild type cells,0.080±0.002%
same,[3H]-Hx Total uptake,Mpn wild type cells,0.005 ± 0.0004%
same,[3H]-Ura Total uptake,Mpn wild type cells,0.21±0.003%
same,[3H]-dT Total uptake,Mpn wild type cells,7.9±0.6%
same,[3H]-Ade Incorporation,Mpn wild type cells,46±3%
same,[3H]-Gua Incorporation,Mpn wild type cells,67±3%
same,[3H]-Hx Incorporation,Mpn wild type cells,43±6%
same,[3H]-Ura Incorporation,Mpn wild type cells,39±8%
same,[3H]-dT Incorporation,Mpn wild type cells,97.4±0.7%
same,MIC,[1],0.2 µg/mL
same,MIC,[2],0.2 µg/mL
same,MIC (Mpn growth),[2]; strain not specified,0.20 µg/mL
"Cn1c(=O)c2c(ncn2CC(O)CO)n(C)c1=O (stereo not drawn) [7-(2,3-dihydroxypropyl)theophylline]",MIC,[1],> 500 µg/mL
same,MIC,[2],> 500 µg/mL
Nc1nc2c(ncn2COCCO)c(=O)[nH]1 [Acyclovir],MIC,[1],15.6 µg/mL
same,MIC,[2],15.6 µg/mL
CC(C)(C)C(=O)OCOP(=O)(COCCn1cnc2c(N)ncnc21)OCOC(=O)C(C)(C)C [Adefovir depivoxil],thyA mutant MIC,"[1]; minimal concentration producing 90% inhibition, thyA mutant Mpn",> 500 µg/mL
same,Wild type MIC,[2]; [7],> 500 µg/mL
Oc1ncnc2[nH]ncc12 [Allopurinol],MIC,[1],> 500 µg/mL
same,MIC,[2]; [7],> 500 µg/mL
Nc1ncnc2c1ncn2[C@@H]1O[C@H](CO)[C@@H](O)[C@@H]1O [Arabinosyl adenine],MIC,[1],> 500 µg/mL
same,MIC,[2]; [7],> 500 µg/mL
Cn1cnc([N+](=O)[O-])c1Sc1ncnc2nc[nH]c12 [Azathioprine],MIC,[1],> 500 µg/mL
same,MIC,[2],> 500 µg/mL
Cn1c(=O)c2c(ncn2C)n(C)c1=O [Caffeine],IC50,human HPRT; [6],2510 ± 156 µM
same,MIC,[1],> 500 µg/mL
same,MIC,[2]; [7],> 500 µg/mL
Nc1ccn(C[C@@H](CO)OCP(=O)(O)O)c(=O)n1 [Cidofovir],MIC,[1],31.2 µg/mL
same,MIC,[2],31.2 µg/mL
OCCN(CCO)c1nc(N2CCCCC2)c2nc(N(CCO)CCO)nc(N3CCCCC3)c2n1 [Dipyridamole],[3H]-Ade Total uptake,Mpn wild type cells,0.67±0.1%
same,[3H]-Gua Total uptake,Mpn wild type cells,0.09±0.002%
same,[3H]-Hx Total uptake,Mpn wild type cells,0.008± 0.001%
same,[3H]-Ura Total uptake,Mpn wild type cells,0.20±0.003%
same,[3H]-dT Total uptake,Mpn wild type cells,7.2±1.1%
same,[3H]-Ade Incorporation,Mpn wild type cells,47±1%
same,[3H]-Gua Incorporation,Mpn wild type cells,56±6%
same,[3H]-Hx Incorporation,Mpn wild type cells,44±3%
same,[3H]-Ura Incorporation,Mpn wild type cells,38±6%
same,[3H]-dT Incorporation,Mpn wild type cells,97.0±1.3%
same,MIC,[1],1.9 µg/mL
same,MIC,[2],1.9 µg/mL
same,MIC (Mpn growth),[2]; strain not specified,approximately 2 μg ml^-1
